Test results as given in ChEMBL document CHEMBL5096171, “Synthesis and Biological Evaluation of PSMA Ligands with Aromatic Residues and Fluorescent Conjugates Based on Them” (J Med Chem, 2021).
Converted amounts (≈) assume the structure as drawn.

Legend:
[1] = Drug uptake in human LNCaP cells assessed as drug accumulation by measuring fluorescence signal at 4 uM incubated for 30 mins by flow cytometry; assay type: ADME, cell-based; details: 0.5 h
[2] = Drug uptake in human 22Rv1 cells assessed as drug accumulation by measuring fluorescence signal at 4 uM incubated for 30 mins by flow cytometry; assay type: ADME, cell-based; details: cwr22r, 0.5 h
[3] = Drug uptake in human PC-3 cells assessed as drug accumulation by measuring fluorescence signal at 4 uM incubated for 30 mins by flow cytometry; assay type: ADME, cell-based; details: pc-3, 0.5 h
[4] = Drug uptake in human PC-3 cells assessed as decrease in drug accumulation incubated for 1 hr in presence of (3S,7S,25S,28S)-33-Azido-25-benzyl-12-(3-chlorobenzyl)-28-(4-hydroxybenzyl)-5,13,20,23,26,29-hexaoxo-4,6,12,19,24,27,30-heptaazatritriacontane-1,3,7-tricarboxylic acid by flow cytometry; assay type: ADME, cell-based; details: pc-3, 1 h
[5] = Drug uptake in human 22Rv1 cells assessed as decrease in drug accumulation incubated for 1 hr in presence of (3S,7S,25S,28S)-33-Azido-25-benzyl-12-(3-chlorobenzyl)-28-(4-hydroxybenzyl)-5,13,20,23,26,29-hexaoxo-4,6,12,19,24,27,30-heptaazatritriacontane-1,3,7-tricarboxylic acid by flow cytometry; assay type: ADME, cell-based; details: cwr22r
[6] = Drug uptake in human LNCaP cells assessed as decrease in drug accumulation incubated for 1 hr in presence of (3S,7S,25S,28S)-33-Azido-25-benzyl-12-(3-chlorobenzyl)-28-(4-hydroxybenzyl)-5,13,20,23,26,29-hexaoxo-4,6,12,19,24,27,30-heptaazatritriacontane-1,3,7-tricarboxylic acid by flow cytometry; assay type: ADME, cell-based
[7] = molecular target: Glutamate carboxypeptidase 2 (Homo sapiens, UniProt Q04609); assay: Inhibition of PSMA derived from human LNCaP cell lysate assessed as inhibition of NAAG hydrolysis incubated for 2 hrs in presence of NAAG by Amplex Red assay; assay type: subcellular
Glutamate carboxypeptidase 2, sequence (Q04609 whole entry): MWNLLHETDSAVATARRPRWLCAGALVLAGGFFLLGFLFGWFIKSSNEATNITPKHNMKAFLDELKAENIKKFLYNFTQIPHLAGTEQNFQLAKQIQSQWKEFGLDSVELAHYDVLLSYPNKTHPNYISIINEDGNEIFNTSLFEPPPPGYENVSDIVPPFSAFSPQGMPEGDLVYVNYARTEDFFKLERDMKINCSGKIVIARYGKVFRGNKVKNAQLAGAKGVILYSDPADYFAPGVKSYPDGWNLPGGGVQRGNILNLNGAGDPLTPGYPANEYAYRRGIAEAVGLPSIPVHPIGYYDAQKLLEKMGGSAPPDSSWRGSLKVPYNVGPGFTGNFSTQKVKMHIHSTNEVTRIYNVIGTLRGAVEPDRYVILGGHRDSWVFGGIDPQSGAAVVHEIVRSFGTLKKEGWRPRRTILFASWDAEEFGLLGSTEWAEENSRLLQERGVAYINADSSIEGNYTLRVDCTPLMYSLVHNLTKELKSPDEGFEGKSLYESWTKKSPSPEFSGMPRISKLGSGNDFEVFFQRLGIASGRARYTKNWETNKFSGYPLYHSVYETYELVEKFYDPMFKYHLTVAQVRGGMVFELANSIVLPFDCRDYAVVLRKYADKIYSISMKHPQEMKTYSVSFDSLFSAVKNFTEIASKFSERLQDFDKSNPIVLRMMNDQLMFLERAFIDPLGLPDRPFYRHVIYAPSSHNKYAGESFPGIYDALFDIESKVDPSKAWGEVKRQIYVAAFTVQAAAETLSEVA

[8] = system: LNCaP; assay: Cytotoxicity against human LNCaP cells assessed as reduction in cell viability incubated for 5 days by MTT assay; assay type: functional; details: 120 h, time 5 day
[9] = system: PC-3; assay: Cytotoxicity against human PC-3 cells assessed as reduction in cell viability incubated for 5 days by MTT assay; assay type: functional; details: PC-3, 120 h, time 5 day
[10] = Drug excretion in […] at 0.449 mg/kg, IT administered as single dose measured after 24 hrs; assay type: ADME, organism-based, CWR22R; details: in vivo, other
[11] = Drug uptake in bloodstream of Balb/c nude mouse xenografted with human 22Rv1 cells at 0.449 mg/kg, IT administered as single dose measured upto 8 hrs; assay type: ADME, organism-based, Blood, CWR22R; details: in vivo, other
[12] = Drug uptake in human 22Rv1 cells xenografted in Balb/c nude mouse assessed as amount of fluorescence intensity at 0.449 mg/kg, IT administered as single dose measured after 24 hrs by IVIS Spectrum CT analysis; assay type: ADME, organism-based, CWR22R; details: in vivo, other
[13] = Drug uptake in human PC-3 cells xenografted in Balb/c nude mouse assessed as amount of fluorescence intensity at 0.449 mg/kg, IT administered as single dose measured after 24 hrs by IVIS Spectrum CT analysis; assay type: ADME, organism-based; details: in vivo, other
[14] = C0 in Soviet Chinchilla rabbit by HPLC analysis; assay type: ADME, Oryctolagus cuniculus; details: in vivo
[15] = C0 in Wistar Albino rat by HPLC analysis; assay type: ADME; details: in vivo
[16] = AUC (0 to t) in Soviet Chinchilla rabbit by HPLC analysis; assay type: ADME, Oryctolagus cuniculus; details: in vivo
[17] = AUC (0 to t) in Wistar Albino rat by HPLC analysis; assay type: ADME; details: in vivo
[18] = AUC (0 to infinity) in Soviet Chinchilla rabbit by HPLC analysis; assay type: ADME, Oryctolagus cuniculus; parameters: time infinity; details: in vivo
[19] = AUC (0 to infinity) in Wistar Albino rat by HPLC analysis; assay type: ADME; parameters: time infinity; details: in vivo
[20] = Elimination rate constant in Soviet Chinchilla rabbit by HPLC analysis; assay type: ADME, Oryctolagus cuniculus
[21] = Elimination rate constant in Wistar Albino rat by HPLC analysis; assay type: ADME
[22] = Half life in Soviet Chinchilla rabbit by HPLC analysis; assay type: ADME, Oryctolagus cuniculus; details: in vivo
[23] = Half life in Wistar Albino rat by HPLC analysis; assay type: ADME; details: in vivo
[24] = Volume of distribution in Soviet Chinchilla rabbit by HPLC analysis; assay type: ADME, Oryctolagus cuniculus; details: in vivo
[25] = Volume of distribution in Wistar Albino rat by HPLC analysis; assay type: ADME; details: in vivo
[26] = Clearance in Soviet Chinchilla rabbit by HPLC analysis; assay type: ADME, Oryctolagus cuniculus; details: in vivo
[27] = Clearance in Wistar Albino rat by HPLC analysis; assay type: ADME; details: in vivo
[28] = MRT (0 to t) in Soviet Chinchilla rabbit by HPLC analysis; assay type: ADME, Oryctolagus cuniculus; details: in vivo
[29] = MRT (0 to t) in Wistar Albino rat by HPLC analysis; assay type: ADME; details: in vivo
[30] = Drug distribution in kidney of Wistar Albino rat measured after 2 to 4 hrs; assay type: ADME, tissue-based; details: in vivo, time 2-4 hrs
[31] = Drug distribution in liver of Wistar Albino rat measured after 2 to 4 hrs; assay type: ADME, tissue-based; details: in vivo, time 2-4 hrs
[32] = Drug distribution in small intestine of Wistar Albino rat measured after 2 to 4 hrs; assay type: ADME, tissue-based; details: in vivo, time 2-4 hrs
[33] = Drug excretion in urine of Wistar Albino rat measured after 2 to 4 hrs; assay type: ADME; details: in vivo, time 2-4 hrs
[34] = Drug distribution in blood plasma of Wistar Albino rat measured after 2 to 4 hrs; assay type: ADME, cell-free; details: time 2-4 hrs
[35] = Acute toxicity in 2 hrs fasted ICR mouse assessed as maximum tolerated dose administered intravenously measured after 14 days; details: in vivo, route iv
[36] = Acute toxicity in 2 hrs fasted ICR mouse assessed as body weight reduction at 89.7 mg/kg, iv measured for 5 to 10 days; assay type: organism-based; details: in vivo
[37] = Acute toxicity in 2 hrs fasted ICR mouse assessed as restoration of mass gain rate at 89.7 mg/kg, iv measured on day 14; assay type: organism-based; details: in vivo, 336 h, time 14 day
[38] = Acute toxicity in 2 hrs fasted ICR mouse assessed as toxic effect at 1.1 mg/kg, iv measured after 14 days; assay type: organism-based; details: in vivo, 336 h, time 14 day
[39] = Acute toxicity in 2 hrs fasted ICR mouse assessed as reversible decrease in body weight dynamics at 89.7 mg/kg, iv measured after 14 days; assay type: organism-based; details: in vivo, 336 h, time 14 day
[40] = Acute toxicity in 10 to 12 hrs fasted Wistar rat assessed as maximum tolerated dose administered intravenously measured after 14 days; details: in vivo, route iv, time 14 day
[41] = Acute toxicity in 10 to 12 hrs fasted Wistar rat assessed as toxic effect at 0.72 to 45 mg/kg, iv measured after 14 days; assay type: organism-based; details: in vivo, 336 h, dose 0.72-45 mg/kg, time 14 day
[42] = Acute toxicity in 10 to 12 hrs fasted Wistar rat assessed as change in body weight dynamics at 0.72 to 45 mg/kg, iv measured after 14 days; assay type: organism-based; details: in vivo, 336 h, dose 0.72-45 mg/kg, time 14 day
[43] = Acute toxicity in 10 to 12 hrs fasted Wistar rat assessed as increase in kidney damage at 45 mg/kg, iv measured after 14 days; assay type: organism-based; details: in vivo, 336 h, time 14 day
[44] = Chronic toxicity in Soviet Chinchilla rabbit assessed as change in blood albumin content at 120 to 243 mg/kg, iv administered once every 3 weeks; assay type: organism-based, Oryctolagus cuniculus; details: in vivo, 504 h, dose 120-243 mg/kg
[45] = Chronic toxicity in Soviet Chinchilla rabbit assessed as signs of intoxication at 120 to 243 mg/kg, iv administered once every 3 weeks; assay type: organism-based, Oryctolagus cuniculus; details: in vivo, 504 h, dose 120-243 mg/kg
[46] = Chronic toxicity in Soviet Chinchilla rabbit assessed as change in brain histology at 120 to 243 mg/kg, iv administered once every 3 weeks; assay type: organism-based, Oryctolagus cuniculus; details: in vivo, 504 h, dose 120-243 mg/kg
[47] = Chronic toxicity in Soviet Chinchilla rabbit assessed as change in heart histology at 120 to 243 mg/kg, iv administered once every 3 weeks; assay type: organism-based, Oryctolagus cuniculus; details: in vivo, 504 h, dose 120-243 mg/kg
[48] = Chronic toxicity in Soviet Chinchilla rabbit assessed as change in lung histology at 120 to 243 mg/kg, iv administered once every 3 weeks; assay type: organism-based, Oryctolagus cuniculus; details: in vivo, 504 h, dose 120-243 mg/kg
[49] = Chronic toxicity in Soviet Chinchilla rabbit assessed as change in liver histology at 120 to 243 mg/kg, iv administered once every 3 weeks; assay type: organism-based, Oryctolagus cuniculus; details: in vivo, 504 h, dose 120-243 mg/kg
[50] = Chronic toxicity in Soviet Chinchilla rabbit assessed as change in kidney histology at 120 to 243 mg/kg, iv administered once every 3 weeks; assay type: organism-based, Oryctolagus cuniculus; details: in vivo, 504 h, dose 120-243 mg/kg
[51] = Chronic toxicity in Soviet Chinchilla rabbit assessed as change in spleen histology at 120 to 243 mg/kg, iv administered once every 3 weeks; assay type: organism-based, Oryctolagus cuniculus; details: in vivo, 504 h, dose 120-243 mg/kg
[52] = n-Octanol/aqueous buffer distribution coefficient, log D of compound at pH 6.4 by shake flask method; assay type: physicochemical
[53] = Water solubility of the compound; assay type: physicochemical

Structure (SMILES): O=C(O)CC[C@H](NC(=O)N[C@@H](CCCCN(Cc1cccc(Cl)c1)C(=O)CCCCCNC(=O)CCC(=O)N[C@@H](Cc1ccccc1)C(=O)N[C@@H](Cc1ccc(O)cc1)C(=O)NCCCn1cc(CNC(=O)c2cccc3c2C(=O)OC32c3ccc(O)cc3Oc3cc(O)ccc32)nn1)C(=O)O)C(=O)O
- Drug uptake [1]: 83.8%
- Drug uptake [2]: 14.4%
- Drug uptake [3]: 7.6%
- Drug uptake [4]: Active
- Drug uptake [5]: Active
- Drug uptake [6]: Active

Structure (SMILES): CN1/C(=C/C=C2C=C(/C=C/C3=[N+](CCCCCC(=O)NCc4cn(CCCNC(=O)[C@H](Cc5ccc(O)cc5)NC(=O)[C@H](Cc5ccccc5)NC(=O)CCC(=O)NCCCCCC(=O)N(CCCC[C@H](NC(=O)N[C@@H](CCC(=O)O)C(=O)O)C(=O)O)Cc5cccc(Cl)c5)nn4)c4ccc(S(=O)(=O)[O-])cc4C3(C)C)CCC/2)C(C)(C)c2cc(S(=O)(=O)O)ccc21
- Ki [7]: 0.0181 µM
- CC50 [8]: 12.2 µM
- CC50 [9]: 18.7 µM
- Drug uptake [10]: Active
- Drug uptake [11]: Active
- Activity [12]: 1.9 10^9(p/s)(uW/cm^2)
- Activity [13]: 1.9 10^9(p/s)(uW/cm^2)
- C0 [14]: 869 µg/mL
- C0 [15]: 342 µg/mL
- AUC(0-t) [16]: 70000 ng·h/mL
- AUC(0-t) [17]: 53000 ng·h/mL
- AUC(0-inf) [18]: 82000 ng·h/mL
- AUC(0-inf) [19]: 76000 ng·h/mL
- k el [20]: 0.000181 s⁻¹
- k el [21]: 0.000179 s⁻¹
- half-life [22]: 1.39 h
- half-life [23]: 1.78 h
- Vd [24]: 1.49 L/kg
- Vd [25]: 0.954 L/kg
- clearance [26]: 14 mL/min/kg
- clearance [27]: 8.22 mL/min/kg
- MRT last [28]: 0.18 h
- MRT last [29]: 0.719 h
- Drug uptake [30]: Active
- Drug uptake [31]: Active
- Drug uptake [32]: Active
- Drug excretion [33]: Active
- Drug uptake [34]: Active
- MTD at 14 h [35]: 89.7 mg/kg
- Activity [36]: Toxic
- Activity [37]: Non-Toxic
- Activity [38]: Non-Toxic
- Activity [39]: Toxic
- MTD at 336 h [40]: 45 mg/kg
- Activity [41]: Non-Toxic
- Activity [42]: Non-Toxic
- Activity [43]: Toxic
- Activity [44]: Toxic
- Activity [45]: Non-Toxic
- Activity [46]: Non-Toxic
- Activity [47]: Non-Toxic
- Activity [48]: Non-Toxic
- Activity [49]: Non-Toxic
- Activity [50]: Non-Toxic
- Activity [51]: Non-Toxic
- logD [52]: -0.48
- solubility [53]: 560 µg/mL (≈ 312 µM)
